Assays:
[1] = tested on: rat heart tissue; assay: GENECALLING differential gene expression analysis after dosing of serotonin modulating agents; format: in vivo, Sprague Dawley rats
Procedure: Control animals received sterile water or canola oil. The animals were sacrificed 24 hours following the last dose. Liver tissue was dissected from the animals, and total RNA was recovered from the dissected tissue. cDNA was prepared and the resulting samples were processed through using GENECALLING™ differential expression analysis as described in U.S. Pat. No. 5,871,697 and in Shimkets et al., Nature Biotechnology 17:798-803 (1999). The contents of these patents and publications are incorporated herein by reference in their entirety.
Thousands of gene fragments were initially found to be differentially expressed in rat heart tissue in response to serotonin modulating agents in. Genes fragments whose expression levels were modulated greater than ±1.5-fold were selected for further analysis.
Column 6 of Table 1, entitled “Function”, lists the type of classification assigned for the protein, based on its function. The 210 single nucleic acid sequences identified herein, are referred to herein as CARDIOTOX 1-210.

[2] = grouping used to generate the distinguishing gene profiles; cited from earlier work

CN1C[C@H](C(=O)N[C@]2(C)O[C@@]3(O)[C@@H]4CCCN4C(=O)[C@H](Cc4ccccc4)N3C2=O)C[C@@H]2c3cccc4[nH]cc(c34)C[C@H]21 [dihydroergotamine]
Effects on Transcription Level: Novel gene fragment, 535 bp, 90% SI to mouse slow/cardiac troponin C [M29793] ([1]; CARDIOTOX 71): −1.7 fold | Effects on Transcription Level: Novel gene fragment, 445 bp, 85% SI to human skeletal muscle alpha 2 actinin [M86406] ([1]; CARDIOTOX 72): −2.0 fold | Effects on Transcription Level: Novel gene fragment, 246 bp, 89% SI to mouse ponsin-1 [AF078667] ([1]; CARDIOTOX 73): −3.5 fold | Effects on Transcription Level: Novel gene fragment, 126 bp, 77% SI to human DNA sequence from cosmid V311G7, between markers DXS366 and DXS87 on chromosome X [Z69304] ([1]; CARDIOTOX 74): +1.8 fold | Effects on Transcription Level: Novel gene fragment, 370 bp ([1]; CARDIOTOX 75): −2.0 fold | Effects on Transcription Level: Novel gene fragment, 337 bp, 78% SI to novel human protein AHNAK [M80899] ([1]; CARDIOTOX 76): −4.1 fold | Effects on Transcription Level: Novel gene fragment, 100 bp, 93% SI to human KIAA0750 protein [ABO18293] ([1]; CARDIOTOX 77): −9.3 fold | Effects on Transcription Level: Novel gene fragment, 44 bp ([1]; CARDIOTOX 78): −9.0 fold | Effects on Transcription Level: Novel gene fragment, 698 bp, 93% SI to mouse plenty-of-prolines-101 [AF062655] ([1]; CARDIOTOX 79): −1.9 fold | Effects on Transcription Level: Novel gene fragment, 660 bp, 84% SI to mouse membrane protein TMS-2 [AF181685] ([1]; CARDIOTOX 80): −3.0 fold | Effects on Transcription Level: Novel gene fragment, 115 bp ([1]; CARDIOTOX 81): −7.5 fold | Effects on Transcription Level: Novel gene fragment, 294 bp, 95% SI to mouse Ndr1 related protein Ndr2 [AB033921] ([1]; CARDIOTOX 82): −3.3 fold | Effects on Transcription Level: Novel gene fragment, 198 bp ([1]; CARDIOTOX 83): +2.6 fold | Effects on Transcription Level: Novel gene fragment, 730 bp, 86% SI to mouse E800 [Y10968] ([1]; CARDIOTOX 84): −1.7 fold | Effects on Transcription Level: Novel gene fragment, 294 bp, 98% SI to cysteine conjugate beta-lyase [S61960] ([1]; CARDIOTOX 85): −1.7 fold | Effects on Transcription Level: Aconitase ([1]; CARDIOTOX 86, GenBank A1243266): −3.2 fold | Effects on Transcription Level: Ribosomal protein L7 ([1]; CARDIOTOX 87, GenBank M17422): +2.7 fold | Effects on Transcription Level: Ribosomal protein L9 ([1]; CARDIOTOX 88, GenBank X51706): +5.0 fold | Effects on Transcription Level: Ribosomal protein L12 ([1]; CARDIOTOX 89, GenBank X53504): −2.0 fold | Effects on Transcription Level: 18S, 5.8S, and 28S ribosomal RNA's ([1]; CARDIOTOX 90, GenBank V01270): +2.6 fold | Effects on Transcription Level: Pyruvate dehydrogenase kinase 2 (PDK2) ([1]; CARDIOTOX 91, GenBank U10357): −5.8 fold | Effects on Transcription Level: D-Binding Protein (DBP) ([1]; CARDIOTOX 92, GenBank J03179): −1.5 fold | Effects on Transcription Level: Lipoprotein lipase ([1]; CARDIOTOX 93, GenBank L03294): −2.2 fold | Effects on Transcription Level: Non-neuronal enolase ([1]; CARDIOTOX 94, GenBank X02610): +3.1 fold | Effects on Transcription Level: Glycogen phosphorylase (muscle isozyme) ([1]; CARDIOTOX 95, GenBank L10669): −2.7 fold | Effects on Transcription Level: Cytochrome c oxidase subunit IV ([1]; CARDIOTOX 96, GenBank X14209): +4.1 fold | Effects on Transcription Level: Alpha-globin ([1]; CARDIOTOX 97, GenBank M17083): +3.9 fold | Effects on Transcription Level: Beta-globin ([1]; CARDIOTOX 98, GenBank X06701): +3.3 fold | Effects on Transcription Level: Myoglobin ([1]; CARDIOTOX 99, GenBank AF197916): +3.9 fold | Effects on Transcription Level: Titin ([1]; CARDIOTOX 100, GenBank L38717): −5.4 fold | Effects on Transcription Level: Skeletal muscle actin ([1]; CARDIOTOX 101, GenBank V01218): −14.3 fold | Effects on Transcription Level: Myosin light chain 2 (MLC2) ([1]; CARDIOTOX 102, GenBank M11851): −1.5 fold | Effects on Transcription Level: Alpha cardiac myosin heavy chain ([1]; CARDIOTOX 103, GenBank X15938): −2.5 fold | Effects on Transcription Level: Troponin I ([1]; CARDIOTOX 104, GenBank U77354): +1.5 fold | Effects on Transcription Level: Cardiac calsequestrin ([1]; CARDIOTOX 105, GenBank AF001334): −2.1 fold | Effects on Transcription Level: Sulfated glycoprotein 2 ([1]; CARDIOTOX 106, GenBank M16975): −1.6 fold | Effects on Transcription Level: Aquaporin 7 ([1]; CARDIOTOX 107, GenBank AB000507): +1.7 fold | Effects on Transcription Level: Carnitine/acylcarnitine carrier protein ([1]; CARDIOTOX 108, GenBank X97831): −2.8 fold | Effects on Transcription Level: Glu-Pro Dipeptide Repeat ([1]; CARDIOTOX 109, GenBank U40628): −5.1 fold | Effects on Transcription Level: Cystatin beta ([1]; CARDIOTOX 110, GenBank X54737): +2.6 fold | Effects on Transcription Level: Novel gene fragment, 593 bp, 90% SI to human calcineurin B-like protein [Z08983] ([1]; CARDIOTOX 111): +1.7 fold | Effects on Transcription Level: Novel gene fragment, 179 bp, 88% SI to human titin [X90568] ([1]; CARDIOTOX 112): +6.0 fold | Effects on Transcription Level: Novel gene fragment, 700 bp, 91% SI to mouse periplakin (PPL) [AF116523] ([1]; CARDIOTOX 113): +1.7 fold | Effects on Transcription Level: Long chain acyl-CoA dehydrogenase (LCAD) ([1]; CARDIOTOX 114, GenBank J05029): +1.5 fold | Effects on Transcription Level: Sulfated glycoprotein 1 (SGP-1) ([1]; CARDIOTOX 115, GenBank M19936): −1.7 fold | Effects on Transcription Level: Catalase ([1]; CARDIOTOX 116, GenBank M11670): +1.6 fold | Effects on Transcription Level: Alpha-fodrin (A2A) (Nonerythroid spectrin alpha subunit) ([1]; CARDIOTOX 117, GenBank AF084186): −1.5 fold | Effects on Transcription Level: Cardiac specific sodium channel alpha-subunit ([1]; CARDIOTOX 118, GenBank M27902): −1.6 fold | Effects on Transcription Level: Glu-Pro Dipeptide Repeat ([1]; CARDIOTOX 119, GenBank U40628): +1.9 fold | Effects on Transcription Level: Novel gene fragment, 200 bp, 64% SI to human KIAA0733 protein [AB018316] ([1]; CARDIOTOX 120): −1.2 fold | Effects on Transcription Level: RNA polymerase II transcription factor SIII (p18 subunit) ([1]; CARDIOTOX 121, GenBank L42855): +1.4 fold | Effects on Transcription Level: Protein-tyrosine phosphalase (LRP) ([1]; CARDIOTOX 122, GenBank L01702): +1.4 fold | Effects on Transcription Level: Skeletal muscle selenoprotein W (SelW) ([1]; CARDIOTOX 123, GenBank U25264): −1.4 fold | Effects on Transcription Level: Sarcoplasmic reticulum 2+-Ca-ATPase ([1]; CARDIOTOX 124, GenBank X15635): −1.2 fold | Effects on Transcription Level: Ribosomal protein S7 ([1]; CARDIOTOX 125, GenBank X53377): +1.7 fold | Effects on Transcription Level: Ribophorin I ([1]; CARDIOTOX 126, GenBank X05300): +1.5 fold | Effects on Transcription Level: Beta cardiac myosin heavy chain ([1]; CARDIOTOX 127, GenBank X15939): −1.6 fold | Effects on Transcription Level: ADP-ribosylation factor 1 ([1]; CARDIOTOX 128, GenBank L12380): +1.3 fold | Effects on Transcription Level: Laminin receptor ([1]; CARDIOTOX 129, GenBank U04942): +1.1 fold | Effects on Transcription Level: Novel gene fragment, 206 bp, 89% SI to human seryl-tRNA synthetase [X91257] ([1]; CARDIOTOX 130): +2.0 fold | Effects on Transcription Level: Annexin VI ([1]; CARDIOTOX 131, GenBank X86086): +3.5 fold | Effects on Transcription Level: Novel gene fragment, 325 bp, 90% SI to mouse N-RAP [U76618] ([1]; CARDIOTOX 132): +1.4 fold | Effects on Transcription Level: Novel gene fragment, 61 bp (CARDIOTOX 134) ([1]; LD10 dose for three days): −1.1 fold | Effects on Transcription Level: Novel gene fragment, 337 bp (CARDIOTOX 133) ([1]; LD10 dose for three days): −1.2 fold | Effects on Transcription Level: Novel gene fragment, 378 bp, 88% SI to human coatomer protein (COPA) [U24105] (CARDIOTOX 138) ([1]; LD10 dose for three days): +1.2 fold | Effects on Transcription Level: Long chain 3-ketoacyl-CoA thiolase (CARDIOTOX 136) ([1]; LD10 dose for three days, GenBank D16479): −1.2 fold | Effects on Transcription Level: TATA-binding protein interacting protein 120 (TIP120) (CARDIOTOX 135) ([1]; LD10 dose for three days, GenBank D87671): +1.1 fold | Effects on Transcription Level: Serine protease (CARDIOTOX 139) ([1]; LD10 dose for three days, GenBank D88250): +1.2 fold | Effects on Transcription Level: Thymosin beta-4 (CARDIOTOX 137) ([1]; LD10 dose for three days, GenBank M34043): +1.6 fold | classification as cardiotoxic or noncardiotoxic serotonin modulating agent [2]: cardiotoxic
